Assay results from patent US10787446B2 (GENENTECH, INC., priority 2015, dated 2020).

target: T1, hNav1.7 and the β1 subunit (Homo sapiens, UniProt Q15858); test: Tritiated compound competitive binding to membranes from cells heterologously expressing hNav1.7 and the β1 subunit (LBA); details: competition with 100 pM [3H]compound, 18 h, room temperature; IC50 by 4 parameter logistic model
T1 construct: expressed in transfected cells
Method: Example 235 Tritiated Compound Binding to Membranes Isolated from Cells that Heterologously Express hNav1.7 and the β1 Subunit
Preparation of membranes containing recombinantly expressed sodium channels: Frozen recombinant cell pellets were thawed on ice and diluted to 4 times the cell pellet weight with ice cold 50 mM Tris HCl, pH 7.4 buffer. The cell suspensions were homogenized on ice using a motorized glass dounce homogeniser. Homogenates were further diluted 8.4 times with ice cold 50 mM Tris HCl, pH 7.4 buffer and then centrifuged at 200×g at 4° C. for 15 min. The supernatants were collected and centrifuged at 10000×g at 4° C. for 50 min. The pellets were then re-suspended in 100 mM NaCl, 20 mM Tris HCl, pH 7.4 buffer containing 1% v/v protease inhibitors (Calbiochem) and re-homogenized on ice. The homogenized membranes were then processed through a syringe equipped with a 26 gauge needle. Protein concentrations were determined by Bradford Assay and the membranes were stored at −80° C.
Radioligand Binding Studies:
Saturation experiments. A competitive NaV1.7 inhibitor having a methyl group was tritiated. Three tritiums were incorporated in place of methyl hydrogens to generate [^3H]compound. Binding of this radioligand was performed in 5 mL borosilicate glass test tubes at room temperature. Binding was initiated by adding membranes to increasing concentrations of [^3H]compound in 100 mM NaCl, 20 mM Tris HCl, pH 7.4 buffer containing 0.01% w/v bovine serum albumin (BSA) for 18 h. […] After 18 h, the reactants were filtered through GF/C glass fiber filters presoaked in 0.5% w/v polyethylene imine. […] [^3H]compound bound to filters was quantified by liquid scintillation counting.
Competitive Binding Experiments:
Binding reactions were performed in 96-well polypropylene plates at room temperature for 18 h. In 360 μL, membranes were incubated with 100 pM [^3H]compound and increasing concentrations of Test Compound. […] Reactions were transferred and filtered through 96-well glass fiber/C filter plates presoaked with 0.5% polyethylene imine. The filtered reactions were washed 5 times with 200 μL ice cold buffer containing 0.25% BSA. Bound radioactivity was determined by liquid scintillation counting.
Data Analysis: For saturation experiments, non-specific binding was subtracted from total binding to provide specific binding and these values were recalculated in terms of pmol ligand bound per mg protein. Saturation curves were constructed and dissociation constants were calculated using the single site ligand binding model: Beq=(Bmax*X)/(X+Kd), where Beq is the amount of ligand bound at equilibrium, Bmax is the maximum receptor density, Kd is the dissociation constant for the ligand, and X is the free ligand concentration. For competition studies percent inhibition was determined and IC50 values were calculated using a 4 parameter logistic model (% inhibition=(A+((B−A)/(1+((x/C)^D)))) using XLfit, where A and B are the maximal and minimum inhibition respectively, C is the IC50 concentration and D is the (Hill) slope.

T1 sequence (Q15858 whole entry): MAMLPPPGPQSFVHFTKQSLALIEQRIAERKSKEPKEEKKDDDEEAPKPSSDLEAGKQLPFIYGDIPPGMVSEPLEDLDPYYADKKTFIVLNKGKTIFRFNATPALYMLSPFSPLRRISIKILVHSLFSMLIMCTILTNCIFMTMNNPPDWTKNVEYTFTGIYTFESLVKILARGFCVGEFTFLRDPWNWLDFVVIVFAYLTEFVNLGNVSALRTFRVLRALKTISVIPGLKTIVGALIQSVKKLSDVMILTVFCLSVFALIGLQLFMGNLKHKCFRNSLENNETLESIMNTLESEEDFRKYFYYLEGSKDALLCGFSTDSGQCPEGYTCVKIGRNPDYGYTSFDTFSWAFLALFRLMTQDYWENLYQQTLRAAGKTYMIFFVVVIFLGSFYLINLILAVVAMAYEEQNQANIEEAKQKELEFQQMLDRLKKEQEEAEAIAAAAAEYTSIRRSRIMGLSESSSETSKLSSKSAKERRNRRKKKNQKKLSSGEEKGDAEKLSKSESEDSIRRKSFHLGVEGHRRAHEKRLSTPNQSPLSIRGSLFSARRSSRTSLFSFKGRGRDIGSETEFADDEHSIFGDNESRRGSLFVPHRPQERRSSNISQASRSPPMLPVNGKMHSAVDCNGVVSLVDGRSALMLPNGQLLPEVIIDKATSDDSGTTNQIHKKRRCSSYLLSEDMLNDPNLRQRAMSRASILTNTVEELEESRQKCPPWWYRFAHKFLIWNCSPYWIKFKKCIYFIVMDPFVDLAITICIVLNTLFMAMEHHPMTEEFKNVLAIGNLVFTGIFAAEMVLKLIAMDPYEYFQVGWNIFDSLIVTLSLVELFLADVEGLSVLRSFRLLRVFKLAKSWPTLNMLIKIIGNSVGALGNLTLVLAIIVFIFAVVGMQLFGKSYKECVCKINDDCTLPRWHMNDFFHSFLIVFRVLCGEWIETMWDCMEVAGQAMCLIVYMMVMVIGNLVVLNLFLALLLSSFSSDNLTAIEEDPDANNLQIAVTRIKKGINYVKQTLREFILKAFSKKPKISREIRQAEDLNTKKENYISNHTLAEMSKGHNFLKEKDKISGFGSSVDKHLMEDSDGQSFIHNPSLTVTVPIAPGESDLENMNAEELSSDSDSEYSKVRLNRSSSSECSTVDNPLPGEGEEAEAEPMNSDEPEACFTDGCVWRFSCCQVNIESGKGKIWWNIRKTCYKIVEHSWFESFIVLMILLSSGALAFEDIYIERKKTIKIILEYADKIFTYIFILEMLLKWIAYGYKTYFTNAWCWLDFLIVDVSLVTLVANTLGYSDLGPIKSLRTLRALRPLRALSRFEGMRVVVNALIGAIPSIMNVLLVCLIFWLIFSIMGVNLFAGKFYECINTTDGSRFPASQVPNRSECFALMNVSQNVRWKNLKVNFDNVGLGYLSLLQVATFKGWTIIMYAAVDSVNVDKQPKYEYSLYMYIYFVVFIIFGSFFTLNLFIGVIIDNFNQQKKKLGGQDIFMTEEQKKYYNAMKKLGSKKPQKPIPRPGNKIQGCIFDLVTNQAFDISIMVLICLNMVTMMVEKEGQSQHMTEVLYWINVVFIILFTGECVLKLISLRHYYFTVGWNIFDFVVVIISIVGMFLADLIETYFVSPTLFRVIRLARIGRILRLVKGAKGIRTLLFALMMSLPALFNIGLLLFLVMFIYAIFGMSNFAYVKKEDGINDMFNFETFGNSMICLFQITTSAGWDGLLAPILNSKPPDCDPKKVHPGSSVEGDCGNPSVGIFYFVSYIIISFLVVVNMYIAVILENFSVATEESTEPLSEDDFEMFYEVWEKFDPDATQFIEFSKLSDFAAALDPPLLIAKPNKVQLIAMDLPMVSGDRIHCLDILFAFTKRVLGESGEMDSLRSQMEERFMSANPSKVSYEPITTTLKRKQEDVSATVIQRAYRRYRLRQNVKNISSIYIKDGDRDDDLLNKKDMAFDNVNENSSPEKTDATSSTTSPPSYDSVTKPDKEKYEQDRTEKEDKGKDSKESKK
T1 sequence (Q07699 19-218 partner): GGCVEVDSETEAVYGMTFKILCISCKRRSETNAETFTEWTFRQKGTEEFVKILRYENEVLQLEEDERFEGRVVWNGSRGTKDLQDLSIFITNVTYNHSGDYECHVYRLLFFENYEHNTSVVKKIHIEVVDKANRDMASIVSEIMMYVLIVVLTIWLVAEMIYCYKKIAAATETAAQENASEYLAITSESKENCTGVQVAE

SMILES | Nav1.7 (LBA) [µM]
O=S(=O)(Nc1ncns1)c1ccc2c(c1)OCC[C@@H]2N1CC[C@@H](C(F)(F)F)C[C@H]1c1ccn[nH]1 (single isomer, unassigned) [Example 143] | 8.9
O=S(=O)(Nc1ncns1)c1ccc2c(c1)OCC[C@H]2N1CC[C@@H](C(F)(F)F)C[C@H]1c1ccn[nH]1 (single isomer, unassigned) [Example 144] | 0.282
O=S(=O)(Nc1ncns1)c1ccc2c(c1)OCC[C@@H]2N1CC[C@H](C(F)(F)F)C[C@@H]1c1ccn[nH]1 (single isomer, unassigned) [Example 145] | 0.0117
O=S(=O)(Nc1ncns1)c1ccc2c(c1)OCC[C@H]2N1CC[C@H](C(F)(F)F)C[C@@H]1c1ccn[nH]1 (single isomer, unassigned) [Example 146] | 0.308
O=S(=O)(Nc1ncns1)c1ccc2c(c1)OCC[C@@H]2N1CCCC[C@H]1CCO (single isomer, unassigned) [Example 151] | 3.51
O=S(=O)(Nc1ncns1)c1ccc2c(c1)OCC[C@@H]2N1CCCC[C@@H]1CCO (single isomer, unassigned) [Example 152] | 3.31
O=S(=O)(Nc1ncns1)c1ccc2c(c1)OCC[C@@H]2N1CCCC[C@H]1C1CCCCC1 (single isomer, unassigned) [Example 155] | 4.35
O=S(=O)(Nc1ncns1)c1ccc2c(c1)OCC[C@@H]2N1CCCC[C@@H]1C1CCCCC1 (single isomer, unassigned) [Example 156] | 0.907
O=S(=O)(Nc1ncns1)c1ccc2c(c1)C(F)(F)CC[C@@H]2N1CCCC[C@H]1c1cccnc1 (single isomer, unassigned) [Example 227] | 0.249
O=S(=O)(Nc1ncns1)c1ccc2c(c1)C(F)(F)CC[C@H]2N1CCCC[C@H]1c1cccnc1 (single isomer, unassigned) [Example 228] | 0.504
Cn1nccc1[C@@H]1CCCCN1[C@H]1CCOc2cc(S(=O)(=O)Nc3ncns3)ccc21 [Example 41, (S)-4-((S)-2-(1-methyl-1H-pyrazol-5-yl)piperidin-1-yl)-N-(1,2,4-thiadiazol-5-yl)chromane-7-sulfonamide] | 0.00609
Cn1nccc1[C@H]1CCCCN1[C@H]1CCOc2cc(S(=O)(=O)Nc3ncns3)ccc21 [Example 42, (S)-4-((R)-2-(1-methyl-1H-pyrazol-5-yl)piperidin-1-yl)-N-(1,2,4-thiadiazol-5-yl)chromane-7-sulfonamide] | 0.142
O=S(=O)(Nc1ncns1)c1ccc2c(c1)OCC[C@@H]2N1CCC(C(F)(F)F)CC1 [Example 44, (S)—N-(1,2,4-thiadiazol-5-yl)-4-(4-(trifluoromethyl)piperidin-1-yl)chromane-7-sulfonamide] | 0.551
O=S(=O)(Nc1ncns1)c1ccc(CN2CCCCC2c2ccccc2)c(Cl)c1 (centres unmarked) [Example 63, 3-chloro-4-((2-phenylpiperidin-1-yl)methyl)-N-(1,2,4-thiadiazol-5-yl)benzenesulfonamide] | 0.609
O=S(=O)(Nc1ncns1)c1ccc(CN2CCCC[C@@H]2c2ccccc2)c(Cl)c1 [Example 64, (R)-3-chloro-4-((2-phenylpiperidin-1-yl)methyl)-N-(1,2,4-thiadiazol-5-yl)benzenesulfonamide] | 0.965
O=S(=O)(Nc1cccc(F)n1)c1ccc(CN2CCCC[C@H]2c2ccccc2)c(Cl)c1 [Example 73, (S)-3-chloro-N-(6-fluoropyridin-2-yl)-4-((2-phenylpiperidin-1-yl)methyl)-benzenesulfonamide] | 6.8
O=S(=O)(Nc1cccc(F)n1)c1ccc(CN2CCCC[C@@H]2c2ccccc2)c(Cl)c1 [Example 74, (R)-3-chloro-N-(6-fluoropyridin-2-yl)-4-((2-phenylpiperidin-1-yl)methyl)-benzenesulfonamide] | 2.67

More lines, now with the values ahead:

Nav1.7 (LBA) [µM] | SMILES
0.0467 | O=S(=O)(Nc1ncns1)c1ccc2c(c1)OCC[C@H]2N1CCC(F)(F)C[C@H]1c1ccc(F)cc1 (single isomer, unassigned) [Example 133]
0.00295 | O=S(=O)(Nc1ncns1)c1ccc2c(c1)OCC[C@@H]2N1CCC(F)(F)C[C@H]1c1ccc(F)cc1 (single isomer, unassigned) [Example 134]
0.0271 | CC(C)(O)[C@H]1CCN([C@@H]2CCOc3cc(S(=O)(=O)Nc4ncns4)ccc32)[C@@H](c2ccc(F)cc2)C1 (single isomer, unassigned) [Example 135]
0.0194 | CC(C)(O)[C@H]1CCN([C@H]2CCOc3cc(S(=O)(=O)Nc4ncns4)ccc32)[C@@H](c2ccc(F)cc2)C1 (single isomer, unassigned) [Example 136]
0.736 | CC(C)(O)[C@@H]1CCN([C@@H]2CCOc3cc(S(=O)(=O)Nc4ncns4)ccc32)[C@H](c2ccc(F)cc2)C1 (single isomer, unassigned) [Example 137]
0.0035 | CC(C)(O)[C@@H]1CCN([C@H]2CCOc3cc(S(=O)(=O)Nc4ncns4)ccc32)[C@H](c2ccc(F)cc2)C1 (single isomer, unassigned) [Example 138]
2.29 | O=S(=O)(Nc1ncns1)c1ccc2c(c1)OCC[C@H]2N1CCC(F)(F)C[C@H]1c1ccccc1 (single isomer, unassigned) [Example 139]
0.0144 | O=S(=O)(Nc1ncns1)c1ccc2c(c1)OCC[C@@H]2N1CCC(F)(F)C[C@H]1c1ccccc1 (single isomer, unassigned) [Example 140]
0.486 | O=S(=O)(Nc1ncns1)c1ccc2c(c1)OCC[C@H]2N1CCC(F)(F)C[C@@H]1c1ccccc1 (single isomer, unassigned) [Example 141]
0.0173 | O=S(=O)(Nc1ncns1)c1ccc2c(c1)OCC[C@@H]2N1CCC(F)(F)C[C@@H]1c1ccccc1 (single isomer, unassigned) [Example 142]
1.48 | O=S(=O)(Nc1ncns1)c1ccc(CN2CCC[C@H]2c2ccccc2)c(Cl)c1 [Example 48, (S)-3-chloro-4-((2-phenylpyrrolidin-1-yl)methyl)-N-(1,2,4-thiadiazol-5-yl)benzenesulfonamide]
6.81 | O=S(=O)(Nc1ncns1)c1ccc(CN2CCC[C@@H]2c2ccccc2)c(Cl)c1 [Example 49, (R)-3-chloro-4-((2-phenylpyrrolidin-1-yl)methyl)-N-(1,2,4-thiadiazol-5-yl)benzenesulfonamide]
5.51 | O=S(=O)(Nc1ncns1)c1ccc(CN2CCCC[C@H]2c2ccccc2)c(Cl)c1 [Example 65, (S)-3-chloro-4-((2-phenylpiperidin-1-yl)methyl)-N-(1,2,4-thiadiazol-5-yl)benzenesulfonamide]
0.334 | O=S(=O)(Nc1ncns1)c1cc(Cl)c(CN2CCCCC2c2ccccc2)cc1F (centres unmarked) [Example 68, 5-chloro-2-fluoro-4-((2-phenylpiperidin-1-yl)methyl)-N-(1,2,4-thiadiazol-5-yl)benzenesulfonamide]
0.21 | O=S(=O)(Nc1ncns1)c1cc(Cl)c(CN2CCCCC2c2ccncc2)cc1F (centres unmarked) [Example 69, 5-chloro-2-fluoro-4-((2-(pyridin-4-yl)piperidin-1-yl)methyl)-N-(1,2,4-thiadiazol-5-yl)benzenesulfonamide]
0.175 | O=S(=O)(Nc1ncns1)c1cc(Cl)c(CN2CCCC[C@H]2c2cccnc2)cc1F [Example 70, (S)-5-chloro-2-fluoro-4-((2-(pyridin-3-yl)piperidin-1-yl)methyl)-N-(1,2,4-thiadiazol-5-yl)benzenesulfonamide]
0.0859 | O=S(=O)(Nc1ncns1)c1ccc2c(c1)OCCC2N1CCOC[C@H]1c1ccccc1 (stereo partly drawn) [Example 75, 4-((R)-3-phenylmorpholino)-N-(1,2,4-thiadiazol-5-yl)chromane-7-sulfonamide]
0.096 | CN(Cc1ccccc1)[C@H]1CCOc2cc(S(=O)(=O)Nc3ncns3)c(F)cc21 [Example 89, (S)-4-(benzyl(methyl)amino)-6-fluoro-N-(1,2,4-thiadiazol-5-yl)chromane-7-sulfonamide]
